According to article PMC10533412, “Phosphoantigens glue butyrophilin 3A1 and 2A1 to activate Vγ9Vδ2 T cells” (Nature, 2023):

Key:
[1] = test system: Vγ9Vδ2 T cells; settings: cited from earlier work
[2] = test system: BTN2A−/− MIA PaCa-2 (BTN2A1/BTN2A2 KO) cells; assay: TNF secretion by Vγ9Vδ2 T cells co-cultured with zoledronate-treated BTN2A−/− MIA PaCa-2 cells expressing BTN2A1 variants; format: cell-based, human; settings: n=6
Procedure: (§1) BTN2A^−/− MIA PaCa-2 (BTN2A1/BTN2A2 KO) cells were plated at 1.0 × 10^4 cells per well in 96-well plates 1 day before transfection. […] The medium was then aspirated and cells were washed four times with PBS at room temperature. Vγ9Vδ2 T cells (1.0 × 10^5 cells per well) were then added and cocultured with MIA PaCa-2 cells, and culture supernatants were collected after 16 h and assayed for TNF levels using a TNF human uncoated ELISA kit (Invitrogen). The assay of CHO-K1 cells (infected with lentivirus of BTN3A1 and CD80) was performed according to the same methods as for the MIA PaCa-2 cells[22],[23].

[3] = test system: BTN3A1+CD80+ CHO-K1 cells; assay: TNF secretion by Vγ9Vδ2 T cells co-cultured with zoledronate-treated BTN3A1+CD80+ CHO-K1 cells; format: cell-based, Chinese hamster; settings: Fig. 3c, ii
Procedure: as §1

[4] = test system: MIA PaCa-2 cells; assay: AFM-SCFS binding force between a Vγ9Vδ2 T cell and a MIA PaCa-2 cell; format: cell-based, human; parameters: binding force, Mean, Fig. 6b / binding force, Median, Fig. 6b: unit not given here; settings: second panel (Ctrl, ZOL, HMBPP-15, HMBPP-15+ZOL)
Procedure: The AFM-SCFS analysis procedure was performed using the JPK CellHesion unit as previously described, and closely followed our previously reported protocol for APCs[4]. […] The glass disks were quickly transferred to an AFM adapter with immediate addition of 1 ml of fresh medium (DMEM: 10% FBS and 1% penicillin–streptomycin). […] The raw data were normalized to the background readings. Blank readings for each set of affinity measurements (Vγ9Vδ2 T cells touching the glass surface) were collected immediately before each assay to perform background subtraction. All data were analysed using the JPK image processing software. […] The following steps were the same as described above.

[5] = test system: BTN2A−/− MIA PaCa-2 (BTN2A1/BTN2A2 KO) cells; assay: IFNγ release from Vγ9Vδ2 T cells in response to zoledronate stimulation of BTN2A−/− MIA PaCa-2 cells expressing BTN2A1 variants; format: cell-based, human; parameters: unit not given here; settings: 6 values

In the case of `Cc1ccc(C/C(=C\COP(=O)(O)OP(=O)(O)O)CO)cc1` [HMBPP-08, (E)-4-hydroxy-3-(4-methylbenzyl)but-2-enyl diphosphate], the “γδ T cell activation” value [1] is given as “do not efficiently activate”.

For `O=P(O)(O)C(O)(Cn1ccnc1)P(=O)(O)O` [Zoledronate], the “TNF secretion by Vγ9Vδ2 T cells, Mean” value ([2]; Fig. 3c, i, zoledronate-treated cells expressing BTN2A1 D455G/E457R) was 6.214, the “TNF secretion by Vγ9Vδ2 T cells, Mean” value ([2]; Fig. 3c, i, zoledronate-treated cells expressing BTN2A1 R477A) was 8.398 and the “TNF secretion by Vγ9Vδ2 T cells, Mean” value ([2]; Fig. 3c, i, zoledronate-treated cells expressing BTN2A1 T510A) was 6.658. For the same molecule, the “TNF secretion by Vγ9Vδ2 T cells, Mean” value ([2]; Fig. 3c, i, zoledronate-treated cells expressing BTN2A1 T510M) was 7.401, the “TNF secretion by Vγ9Vδ2 T cells, Mean” value ([2]; Fig. 3c, i, zoledronate-treated cells expressing BTN2A1 V511A) was 7.427 and the “TNF secretion by Vγ9Vδ2 T cells, Mean” value ([2]; Fig. 3c, i, zoledronate-treated cells expressing BTN2A1 V511D) was 6.982. The “TNF secretion by Vγ9Vδ2 T cells, Mean” value ([2]; Fig. 3c, i, zoledronate-treated cells expressing BTN2A1 V511W) was 7.617, the “TNF secretion by Vγ9Vδ2 T cells, Mean” value ([2]; Fig. 3c, i, zoledronate-treated cells expressing BTN2A1 WT) was 158.2 and the “TNF secretion by Vγ9Vδ2 T cells, Mean” value ([2]; Fig. 3c, i, zoledronate-treated cells expressing BTN2A1 ∆C) was 9.364. The “TNF secretion by Vγ9Vδ2 T cells, Mean” value ([2]; Fig. 3c, i, zoledronate-treated cells, NT) was 7.859, the “TNF secretion by Vγ9Vδ2 T cells, Mean” value ([2]; Fig. 3d, zoledronate-treated cells expressing BTN2A1 H471G/I472A/Y473A) was 9.274 and the “TNF secretion by Vγ9Vδ2 T cells, Mean” value ([2]; Fig. 3d, zoledronate-treated cells expressing BTN2A1 R449A/R469A) was 16.58. The “TNF secretion by Vγ9Vδ2 T cells, Mean” value ([2]; Fig. 3d, zoledronate-treated cells expressing BTN2A1 WT) was 182.7, the “TNF secretion by Vγ9Vδ2 T cells, Mean” value ([2]; Fig. 3d, zoledronate-treated cells expressing BTN2A1 Y464A-T474A) was 9.364 and the “TNF secretion by Vγ9Vδ2 T cells, Mean” value ([2]; Fig. 3d, zoledronate-treated cells expressing BTN2A1 ∆C) was 0.6146. The “TNF secretion by Vγ9Vδ2 T cells, Mean” value ([2]; Fig. 3d, zoledronate-treated cells, NT) was 9.612, the “TNF secretion by Vγ9Vδ2 T cells, Mean” value ([3]; zoledronate-treated cells expressing BTN2A1 D455G/E457R, n=6) was 11.14 and the “TNF secretion by Vγ9Vδ2 T cells, Mean” value ([3]; zoledronate-treated cells expressing BTN2A1 R477A, n=6) was 8.53. For the same molecule, the “TNF secretion by Vγ9Vδ2 T cells, Mean” value ([3]; zoledronate-treated cells expressing BTN2A1 T510A, n=6) was 7.472, the “TNF secretion by Vγ9Vδ2 T cells, Mean” value ([3]; zoledronate-treated cells expressing BTN2A1 T510M, n=6) was 7.874 and the “TNF secretion by Vγ9Vδ2 T cells, Mean” value ([3]; zoledronate-treated cells expressing BTN2A1 V511A, n=6) was 10.17. The “TNF secretion by Vγ9Vδ2 T cells, Mean” value ([3]; zoledronate-treated cells expressing BTN2A1 V511D, n=6) was 6.367, the “TNF secretion by Vγ9Vδ2 T cells, Mean” value ([3]; zoledronate-treated cells expressing BTN2A1 V511W, n=6) was 8.466 and the “TNF secretion by Vγ9Vδ2 T cells, Mean” value ([3]; zoledronate-treated cells expressing BTN2A1 WT, n=5) was 465.4. The “TNF secretion by Vγ9Vδ2 T cells, Mean” value ([3]; zoledronate-treated cells expressing BTN2A1 ∆C, n=6) was 7.982, the “TNF secretion by Vγ9Vδ2 T cells, Mean” value ([3]; zoledronate-treated cells, NT, n=6) was 20.41 and the “binding force, Mean, Fig. 6b” value [4] was 1524. The “binding force, Median, Fig. 6b” value [4] was 1525, the “Mean (Extended Data Fig. 7b)” value ([5]; NT cells) was 2.056 and the “Mean (Extended Data Fig. 7b)” value ([5]; cells expressing BTN2A1 E286G) was 48.61. The “Mean (Extended Data Fig. 7b)” value ([5]; cells expressing BTN2A1 E300G) was 78.93, the “Mean (Extended Data Fig. 7b)” value ([5]; cells expressing BTN2A1 E307G) was 40.34 and the “Mean (Extended Data Fig. 7b)” value ([5]; cells expressing BTN2A1 E316G) was 128.5. The “Mean (Extended Data Fig. 7b)” value ([5]; cells expressing BTN2A1 F324G) was 95.24, the “Mean (Extended Data Fig. 7b)” value ([5]; cells expressing BTN2A1 K276G) was 55.14 and the “Mean (Extended Data Fig. 7b)” value ([5]; cells expressing BTN2A1 K283G) was 42.21. For the same molecule, the “Mean (Extended Data Fig. 7b)” value ([5]; cells expressing BTN2A1 K304G) was 117, the “Mean (Extended Data Fig. 7b)” value ([5]; cells expressing BTN2A1 K311G) was 59.44 and the “Mean (Extended Data Fig. 7b)” value ([5]; cells expressing BTN2A1 L272G) was 81.83. The “Mean (Extended Data Fig. 7b)” value ([5]; cells expressing BTN2A1 L279G) was 16.84, the “Mean (Extended Data Fig. 7b)” value ([5]; cells expressing BTN2A1 L294G) was 44.72 and the “Mean (Extended Data Fig. 7b)” value ([5]; cells expressing BTN2A1 L297G) was 44.28. The “Mean (Extended Data Fig. 7b)” value ([5]; cells expressing BTN2A1 L314G) was 23.31, the “Mean (Extended Data Fig. 7b)” value ([5]; cells expressing BTN2A1 L318G) was 13.17 and the “Mean (Extended Data Fig. 7b)” value ([5]; cells expressing BTN2A1 L325C/A327C) was 59.39. The “Mean (Extended Data Fig. 7b)” value ([5]; cells expressing BTN2A1 L325G) was 7.962, the “Mean (Extended Data Fig. 7b)” value ([5]; cells expressing BTN2A1 R290A) was 84.46 and the “Mean (Extended Data Fig. 7b)” value ([5]; cells expressing BTN2A1 W320A) was 70.37. For the same molecule, the “Mean (Extended Data Fig. 7b)” value ([5]; cells expressing BTN2A1 WT) was 151.4.
